# Measurements from US6090786A, “Serine proteases, their activity and their synthetic inhibitors” (priority 1994, dated 2000).
# Columns and labels:
# [1] = Functional stability of DPPIV inhibitors in the reaction medium (buffer); assay type: physicochemical; conditions: 50 mM TRIS buffer pH 8.3, 37° C.
# Protocol: (§1) To determine the functional stability of the inhibitors in the reaction medium, a 10 mM stock solution in DMSO was diluted 50-fold in 50 mM TRIS buffer pH 8.3 and incubated at 37° C. To determine the functional stability in plasma, a 50 mM stock solution in DMSO was diluted 50-fold in fresh or freshly frozen citrated plasma from a healthy donor and incubated at 37° C. At specific time intervals an aliquot was withdrawn, added to an equal volume of DPPIV diluted in buffer or to an equal volume of plasma and the kinetics of inactivation were determined as described under b). The reduction in observed pseudo-first order rate constant is a measure for the amount of functional inhibitor lost during the incubation and allowed to estimate the half-life of the inhibitors in buffer and plasma. The following table lists the results.
# [2] = Functional stability of DPPIV inhibitors in human citrated plasma; assay type: in vitro ADME; conditions: 37° C.
# Protocol: as §1
# [3] = In vivo testing in rabbits, single intravenous injection
# Protocol: In order to test the effect of the inhibitors in vivo rabbits were injected with the inhibitor and their DPPIV activity was tested using Gly-Pro-4-Methoxy-2-naphthylamide as the substrate.
# 4 Rabbits received a single 5 ml intravenous-(ear vein) injection of physiological saline cobtaining 0 (control), 1 mg, 5 mg and 10 mg AB 3, respectively. Blood samples were taken from the central ear artery 5 min before injection and at different points of time, directly after the injection, after 4 hrs and after 1, 2, 3, 6 and 13 days.
# Counts of white and red blood cells and platelets, serum DPPIV activity and serum bilirubin, GOT, GPT, GT, LDH, creatinine, Na, K, CK and urea were evaluated.
smiles,measurement,setting,value
"Cl.O=C([C@@H]1CCCN1)N1CCCC1P(=O)(Oc1ccccc1)Oc1ccccc1 (stereo partly drawn) [Pro-Pro^P -(OPh)2, Diphenyl (S,R)-1-[(S)-prolyl]pyrrolidine-2-phophonate hydrochloride]",t1/2 in buffer,[1],3.5 ± 0.1 h
same,t1/2 in plasma,[2],4.1 ± 0.3 h
same,death of the animal,[3]; rabbit receiving 10 mg i.v.,died after 11 days
same,biochemical and hematological parameters,"[3]; rabbit receiving 10 mg i.v., at day 6",normal
same,"cell counts (white and red blood cells, platelets) and serum biochemical parameters","[3]; rabbits, single i.v. injection of 1 mg, 5 mg or 10 mg, up to 13 days, DPPIV enzyme activity excepted",No differences
